The record followed here is patent publication US8623893B2, “Pyridino-pyridinone derivatives, preparation and therapeutic use thereof” (SANOFI, priority 2009, dated 2014).

A word on the melting point: it is the temperature, or range, at which the solid turns liquid.

Structures can show the parent of a compound that is named as a salt.

T2 sequence (P09619 with tags, fused parts or gaps): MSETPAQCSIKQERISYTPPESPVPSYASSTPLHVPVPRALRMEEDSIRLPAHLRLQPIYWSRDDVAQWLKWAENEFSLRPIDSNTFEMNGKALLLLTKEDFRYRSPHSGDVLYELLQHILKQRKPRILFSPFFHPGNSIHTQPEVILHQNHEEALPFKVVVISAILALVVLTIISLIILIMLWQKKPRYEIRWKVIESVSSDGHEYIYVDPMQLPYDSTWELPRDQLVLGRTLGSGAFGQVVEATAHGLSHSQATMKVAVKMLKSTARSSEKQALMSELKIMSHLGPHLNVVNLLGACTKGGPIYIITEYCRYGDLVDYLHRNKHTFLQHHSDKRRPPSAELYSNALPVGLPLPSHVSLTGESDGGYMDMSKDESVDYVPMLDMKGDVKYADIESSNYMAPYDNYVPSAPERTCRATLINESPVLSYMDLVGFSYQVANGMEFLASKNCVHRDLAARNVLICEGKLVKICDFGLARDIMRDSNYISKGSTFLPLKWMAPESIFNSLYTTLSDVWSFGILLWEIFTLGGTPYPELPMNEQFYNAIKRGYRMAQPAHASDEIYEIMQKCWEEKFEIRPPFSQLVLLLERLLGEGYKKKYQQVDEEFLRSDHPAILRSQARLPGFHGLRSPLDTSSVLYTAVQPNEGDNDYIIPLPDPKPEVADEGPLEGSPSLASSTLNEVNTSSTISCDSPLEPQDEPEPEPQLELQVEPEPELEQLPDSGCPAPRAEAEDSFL

The target in the first series is T1, Flt-3 receptor (constitutively active mutant Flt3ITD, MV4-11 cell line) (Homo sapiens, UniProt P36888, INS600HVDFREYEYD).
T1 construct: bearing a constitutively active mutant Flt3ITD; endogenous in cells; host or cells: MV4-11
T1 sequence (P36888 with tags, fused parts or gaps INS600HVDFREYEYD): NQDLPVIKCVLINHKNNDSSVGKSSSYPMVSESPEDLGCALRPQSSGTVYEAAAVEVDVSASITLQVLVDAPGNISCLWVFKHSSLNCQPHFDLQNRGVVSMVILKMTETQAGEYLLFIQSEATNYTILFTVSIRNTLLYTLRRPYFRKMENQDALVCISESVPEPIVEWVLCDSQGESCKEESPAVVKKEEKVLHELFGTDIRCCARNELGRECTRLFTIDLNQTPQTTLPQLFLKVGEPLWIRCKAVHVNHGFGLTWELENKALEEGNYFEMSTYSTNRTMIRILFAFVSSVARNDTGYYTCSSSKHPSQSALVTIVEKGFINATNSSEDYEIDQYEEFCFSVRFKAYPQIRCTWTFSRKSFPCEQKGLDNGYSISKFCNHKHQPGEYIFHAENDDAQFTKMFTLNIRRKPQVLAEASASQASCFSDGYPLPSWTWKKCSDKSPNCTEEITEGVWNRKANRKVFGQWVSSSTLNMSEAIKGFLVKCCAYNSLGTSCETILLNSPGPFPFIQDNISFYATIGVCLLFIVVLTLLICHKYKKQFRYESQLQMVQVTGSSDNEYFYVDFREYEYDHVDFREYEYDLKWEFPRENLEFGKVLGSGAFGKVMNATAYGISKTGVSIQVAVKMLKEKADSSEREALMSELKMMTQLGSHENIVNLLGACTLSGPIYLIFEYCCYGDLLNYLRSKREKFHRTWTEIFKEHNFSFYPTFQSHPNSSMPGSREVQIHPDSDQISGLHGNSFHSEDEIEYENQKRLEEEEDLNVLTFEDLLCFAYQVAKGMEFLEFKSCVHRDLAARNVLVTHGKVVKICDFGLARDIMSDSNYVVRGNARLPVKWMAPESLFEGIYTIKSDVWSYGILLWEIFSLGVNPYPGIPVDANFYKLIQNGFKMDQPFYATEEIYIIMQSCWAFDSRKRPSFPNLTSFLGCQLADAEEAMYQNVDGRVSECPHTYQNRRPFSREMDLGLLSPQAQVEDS
Put plainly: Inhibition of proliferation of MV4-11 cells (tyrosine kinase activity of Flt-3 receptor), CellTiter-Glo, 72 h. It counts as cell-based. The following applies: 72 h incubation, cellular ATP, read-out: IC50 (concentration that inhibits 50% of the proliferation of the MV4-11 cells). Here is the method:
(§1) The inhibitory activity with respect to PDGF or Flt-3 receptors is given by the concentration that inhibits 50% of the proliferation activity of cells Baf3 tel/PDGF or MV4-11, respectively.
Measurement of Inhibition of the Tyrosine Kinase Activity of the Flt-3 Receptor
The inhibitory effect of the compounds according to the invention on the tyrosine kinase activity of the Flt-3 receptor was evaluated on the MV4-11 cell line, a line established from a leukaemia of the AML type and bearing a constitutively active mutant Flt3ITD. The inhibitory activity is correlated with inhibition of cell growth, according to the protocols described by SPIEKERMANN, K. et al., Blood, 2003, 101, (4) 1494-1504 and O'FARRELL, A.-M. et al., Blood, 2003, 101, (9) 3597-3605.
(§2) The MV4-11 cells are washed with PBS buffer and seeded in 96-well plates, at a density of 1.10^5 cells/ml (100 μl per well), in RPMI 1640 containing 10% of FCS, in the presence or absence of the test compounds. After incubation for 72 h, viable cells are quantified by measurement of cellular ATP using the CellTiter-Glo® kit (Promega, Cat G7571). The cells are treated according to the instructions given by the supplier of the kit and the luminescence is measured using a Luminoskan (Ascent, Labsystem) with the following parameters: measurement: single; integration time: 1000 ms, lag time: 5 s.
The inhibitory activity with respect to the Flt-3 receptor is given by the concentration that inhibits 50% of the proliferation of the MV4-11 cells.
`CCn1c(N)c(-c2ncc[nH]2)c(=O)c2ccc(-c3ccc(CC(=O)Nc4ncc(Cl)s4)cc3)nc21` [Compound 26, 2-{4-[7-Amino-8-ethyl-6-(1H-imidazol-2-yl)-5-oxo-5,8-dihydro-[1,8]naphthyridin-2-yl]-phenyl}-N-(5-chloro-thiazol-2-yl)-acetamide]: the IC50 was determined as 95 nM.

Tested on in another series: not given
Test: not given
Settings: not given
With `CCn1c(N)c(-c2ncc[nH]2)c(=O)c2ccc(-c3ccc(CC(=O)Nc4ccccn4)cn3)nc21` (as salt: HCl) [Compound 2, 2-{6-[7-Amino-8-ethyl-6-(1H-imidazol-2-yl)-5-oxo-5,8-dihydro-[1,8]naphthyridin-2-yl]-pyridin-3-yl}-N-pyridin-2-yl-acetamide], the melting point was found to be 200 °C.

With `CCn1c(N)c(-c2ncc[nH]2)c(=O)c2ccc(-c3ccc(CC(=O)NCC4COCCN4C4CC4)cc3)nc21` (stereo not shown) (as salt: HCl) [Compound 3, 2-{4-[7-Amino-8-ethyl-6-(1H-imidazol-2-yl)-5-oxo-5,8-dihydro-[1,8]naphthyridin-2-yl]-phenyl}-N-(4-cyclopropyl-morpholin-3-ylmethyl)-acetamide], the melting point came to 210 °C. Same read-out and setting: the same measure for `Nc1c(-c2ncc[nH]2)c(=O)c2ccc(-c3ccc(CC(=O)NCc4ccncc4)cc3)nc2n1CC1CC1` (as salt: TFA) [Compound 51, 2-{4-[7-Amino-8-cyclopropylmethyl-6-(1H-imidazol-2-yl)-5-oxo-5,8-dihydro-[1,8]naphthyridin-2-yl]-phenyl}-N-pyridin-4-ylmethyl-acetamide]: 118 °C. On the same count and under the same terms, the same measure for `CCn1c(N)c(-c2ncc[nH]2)c(=O)c2ccc(-c3ccc(CC(=O)NCc4ccncc4)nc3)nc21` (as salt: TFA) [Compound 53, 2-{5-[7-Amino-8-ethyl-6-(1H-imidazol-2-yl)-5-oxo-5,8-dihydro-[1,8]naphthyridin-2-yl]-pyridin-2-yl}-N-pyridin-4-ylmethyl-acetamide]: 120 °C. Same read-out and setting: the same measure for `CCn1c(N)c(-c2nc(C)c[nH]2)c(=O)c2ccc(-c3ccc(CC(=O)NCc4ccncc4)cc3)nc21` (as salt: salt) [Compound 50, 2-{4-[7-Amino-8-ethyl-6-(4-methyl-1H-imidazol-2-yl)-5-oxo-5,8-dihydro-[1,8]naphthyridin-2-yl]-phenyl}-N-pyridin-4-ylmethyl-acetamide]: 144 °C.

Turning to `CCn1c(N)c(-c2ncc[nH]2)c(=O)c2ccc(-c3ccc(C(C)C(=O)NCc4ccncc4)cc3)nc21` (stereo not shown) [Compound 47, 2-{4-[7-Amino-8-ethyl-6-(1H-imidazol-2-yl)-5-oxo-5,8-dihydro-[1,8]naphthyridin-2-yl]-phenyl}-N-pyridin-4-ylmethyl-propionamide], the melting point was found to be 186 °C. Molecule `CCn1c(N)c(-c2ncc[nH]2)c(=O)c2ccc(-c3ccc(CCCC(=O)NCc4ccncc4)cc3)nc21` [Compound 49, 4-{4-[7-Amino-8-ethyl-6-(1H-imidazol-2-yl)-5-oxo-5,8-dihydro-[1,8]naphthyridin-2-yl]-phenyl}-N-pyridin-4-ylmethyl-butyramide] gave a melting point of 240 °C. For `CCN1CCCC1CNC(=O)Cc1ccc(-c2ccc3c(=O)c(-c4ncc[nH]4)c(N)n(CC)c3n2)cc1F` (stereo not shown) [Compound 56, 2-{4-[7-Amino-8-ethyl-6-(1H-imidazol-2-yl)-5-oxo-5,8-dihydro-[1,8]naphthyridin-2-yl]-2-fluoro-phenyl}-N-(1-ethyl-pyrrolidin-2-ylmethyl)-acetamide], the melting point amounted to 100 °C.

The next series addresses T2, fusion protein Tel/PDGF-R beta (PDGF beta receptor) in BaF/3 cells (Homo sapiens, UniProt P09619).
T2 construct: the transmembrane and intracellular part of the PDGF-R beta receptor; expressed in transfected cells; host or cells: murine haematopoietic cell line BaF/3; the other entry of the earlier key: ETV6 (P41212, Transcription factor ETV6)
Put plainly: Inhibition of proliferation of BaF3 Tel/PDGF cells (tyrosine kinase activity of PDGF-R beta), CellTiter-Glo, 72 h. It counts as cell-based, murine. The following applies: 72 h incubation, cellular ATP, read-out: IC50 (concentration that inhibits 50% of the proliferation of Baf3 tel/PDGF cells).
Text: as §1
Measurement of Inhibition of the Tyrosine Kinase Activity of the Receptor to PDGF Beta (PDGF-Rβ) (Baf-3 tel/PDGFRβ):
This test consists of evaluating the effects of the compounds on the tyrosine kinase activity of the PDGF beta receptor.
The inhibitory effect of the compounds according to the invention on the tyrosine kinase activity of the PDGF-R receptor was evaluated on the murine haematopoietic cell line BaF/3 transfected with a plasmid coding for the fusion protein Tel/PDGF-R beta. This fusion protein is found in chronic myeloid myelomonocytic leukaemias (CMML). It comprises the N-terminal part of the transcription factor Tel and the transmembrane and intracellular part of the PDGF-R beta receptor. This fusion protein is present in dimerized form (presence of an oligomerization domain in the N-terminal part of Tel) and accordingly leads to the constitutive activity of the kinase domain of PDGF-R beta.
as §2, with “The BaF3 Tel/PDGF” for “The MV4-11”, “with phosphate” for “with PBS”, “of 5.10^4” for “of 1.10^5”, “([…]” for “(100 μl”, “h, the” for “h,”, “measured with” for “measured using”
It thus appears that the compounds according to the invention have an inhibitory activity on the tyrosine kinase activity of PDGF-R beta. This activity is given by the concentration that inhibits 50% of the proliferation of Baf3 tel/PDGF cells (IC50).
Turning to `CCn1c(N)c(-c2ncc[nH]2)c(=O)c2ccc(-c3ccc(CC(=O)Nc4ccccn4)cn3)nc21` [Compound 2, 2-{6-[7-Amino-8-ethyl-6-(1H-imidazol-2-yl)-5-oxo-5,8-dihydro-[1,8]naphthyridin-2-yl]-pyridin-3-yl}-N-pyridin-2-yl-acetamide], the IC50 is 7.9 nM. Regarding `CCN1CCCC1CNC(=O)Cc1ccc(-c2ccc3c(=O)c(-c4ncc[nH]4)c(N)n(CC)c3n2)c(C)c1` (stereo not shown) [Compound 9, 2-{4-[7-Amino-8-ethyl-6-(1H-imidazol-2-yl)-5-oxo-5,8-dihydro-[1,8]naphthyridin-2-yl]-3-methyl-phenyl}-N-(1-ethyl-pyrrolidin-2-ylmethyl)-acetamide], the IC50 came to 9.8 nM.

Take `CCn1c(N)c(-c2ncc[nH]2)c(=O)c2ccc(-c3ccc(CC(=O)Nc4ccc(C)nc4)cc3)nc21` [Compound 10, 2-{4-[7-Amino-8-ethyl-6-(1H-imidazol-2-yl)-5-oxo-5,8-dihydro-[1,8]naphthyridin-2-yl]-phenyl}-N-(6-methyl-pyridin-3-yl)-acetamide]: the IC50 amounted to 2.5 nM. For the molecule `CCn1c(N)c(-c2ncc[nH]2)c(=O)c2ccc(-c3ccc(CC(=O)Nc4nnc(C)s4)cc3)nc21` [Compound 14, 2-{4-[7-Amino-8-ethyl-6-(1H-imidazol-2-yl)-5-oxo-5,8-dihydro-[1,8]naphthyridin-2-yl]-phenyl}-N-(5-methyl-[1,3,4]thiadiazol-2-yl)-acetamide], the IC50 worked out at 2.4 nM. The same measure, in the same setting: the same measure for `Nc1c(-c2ncc[nH]2)c(=O)c2ccc(-c3ccc(CC(=O)NCc4ccncc4)cc3)nc2n1CC1CC1` [Compound 51, 2-{4-[7-Amino-8-cyclopropylmethyl-6-(1H-imidazol-2-yl)-5-oxo-5,8-dihydro-[1,8]naphthyridin-2-yl]-phenyl}-N-pyridin-4-ylmethyl-acetamide]: 8.9 nM; for `Nc1c(-c2ncc[nH]2)c(=O)c2ccc(-c3ccc(CC(=O)NCc4ccncc4)cc3)nc2n1C1CCCC1` [Compound 52, 2-{4-[7-Amino-8-cyclopentyl-6-(1H-imidazol-2-yl)-5-oxo-5,8-dihydro-[1,8]naphthyridin-2-yl]-phenyl}-N-pyridin-4-ylmethyl-acetamide]: 13.6 nM; for `CCn1c(N)c(-c2ncc[nH]2)c(=O)c2ccc(-c3ccc(CC(=O)NCCCc4ccccc4)cc3)nc21` [Compound 55, 2-{4-[7-Amino-8-ethyl-6-(1H-imidazol-2-yl)-5-oxo-5,8-dihydro-[1,8]naphthyridin-2-yl]-phenyl}-N-(3-phenyl-propyl)-acetamide]: 5.9 nM.
